# According to publication PMC10265003 (Royal Society Open Science, 2023):
# Positions of bridges follow the written chain, without caps; N, C: chain ends. Non-standard residues stand in square brackets, D forms with d. Residues, ends and D or L forms follow the SMILES beside them. Chains are numbered I, II in the order given. No end group written: not given here. 4Abz = Nc1ccc(C(=O)O)cc1; 2Abz = Nc1ccccc1C(=O)O; Ahx = NCCCCCC(=O)O
# Assays:
# MCF-7 breast cancer line = type: cell-based, human; details: 2 h
# Procedure: (§1) The MTT assay was performed in accordance with previous reports. Briefly, the cells were seeded with a complete medium in 96-well plates at a rate of 10 000 cells and 100 µl per well, and adhesion to the plates was allowed for 24 h. Later, the complete medium was removed, and an incomplete medium was added for synchronization for another 24 h. The cells were then incubated at 37°C for 2 h with 100 µl of peptide at the evaluated concentrations (200, 100, 50, 25, 12.5 and 6.25 µg ml^−1). Next, the peptide was removed from the well and 100 µl of incomplete medium with 10% MTT was added and incubated for 4 h. The medium was replaced with 100 µl of isopropanol, and after 30 min of incubation at 37°C, the absorbance was measured at 575 nm. As a negative control, an incomplete culture medium with 10% MTT was used, and as a positive control, cells without MTT treatment were used. The IC50 value was determined from figure 1 (peptide concentration versus per cent cell viability) using a nonlinear regression model with variable slope and GraphPad Prism 9 statistical analysis software.
# [1] = RP-HPLC retention time as measure of hydrophobicity; type: physicochemical; details: Chromolith RP-18e, water/ACN with 0.05% TFA, 5-50% B from 1 to 9 min, 2 ml min^−1, 210 nm, used as measure of hydrophobicity
# Procedure: The peptides were analysed using a Hitachi Primaide-DAD 1110 chromatograph and a Chromolith RP-18e High Resolution column (100 × 4.1 i.d. mm) (Merck, Darmstadt, Germany). Water containing 0.05% TFA was used as solvent A, and ACN containing 0.05% TFA was used as solvent B. The elution programme used was […] at a flow rate of 2 ml min^−1 and a wavelength of 210 nm. Ten microlitres of each peptide solution was injected at an approximate concentration of […].
# pepsin [2] = assay: Pepsin dissolved in 0.010 M HCl (pH 2.0); peptides dissolved in H2O-TFA 0.05% (v/v); details: 37°C, up to 3 h
# CD1 mice = assay: Peptide toxicity in vivo model (Irwin test, survival)
# Procedure: Experiment 1. CD1 mice male (eight weeks old, weighing 33–35 g) were housed in groups of six animals per cage for each peptide ^26[F] and ^26[1-Nal]; three mice were inoculated by intraperitoneal via ip, and three mice were inoculated by subcutaneous via sc. Mice inoculated via ip or sc with saline solution were used as control. The peptide was dissolved in saline solution (7 mg ml^−1) and the mice were inoculated only one time with 0.33–0.35 ml (dosage 70 mg kg^−1) via ip or sc. Experiment 2. CD1 mice female (n = 4, eight weeks old, weighing 33–35 g) were inoculated only one time with peptide ^26[F] (dosage 140 mg kg^−1) or ^26[1-Nal] (8.8 to 70 mg kg^−1).
# To determine the toxicity of peptides ^26[F] and ^26[1-Nal] in vivo model, a preliminary study was carried out in CD1 male mice. The Irwin test was used to evaluate in qualitative manner the effect of peptide administration over motor functions, behaviour, physiology and pharmacological safety in rodents. This test is used as a first approach to study of the adverse effects generated by a pharmaceutical treatment in an in vivo model in preclinical test.
# [3] = tested on: human primary fibroblasts; type: cell-based
# Text: Rink amide resin, Fmoc-Arg(Pbf)-OH, Fmoc-Trp(Boc)-OH, Fmoc-Gln(Trt)-OH, Fmoc-Phe-OH, Fmoc-Lys(Boc)-OH, Fmoc-Leu-OH, Fmoc-Gly-OH, Fmoc-6-Ahx-OH, Fmoc-Lys(Fmoc)-OH, Triton-X, piperidine, N,N-dimethylformamide (DMF), dichloromethane (DCM), dicyclohexylcarbodiimide (DCC), 1-hydroxy-6-chloro-benzotriazole (6-Cl-HOBt), ninhydrin, potassium cyanide (KCN), ethanol, pyridine, phenol, trifluoroacetic acid (TFA), ethyl ether, triisopropylsilane (TIS), ethanedithiol (EDT), acetonitrile (ACN), methanol (MeOH) and solid phase extraction columns Supelco, Trypsin-EDTA solution and pepsin 2500 units mg^−1 were purchased from Sigma-Aldrich (St Louis, MO, USA). The non-natural amino acids diphenylalanine, 1-naphthyl-phenylalanine, 4-benzoyl-phenylalanine, homophenylalanine (hF), 4-(Fmoc-amino) benzoic acid (4-Abz) and 2-(Fmoc-amino) benzoic acid (2-Abz) were obtained from AAPPTec (Louisville, KY, USA). The cell lines MCF-7, HeLa, HEK-293 were purchased from ATCC (Manassas, VA). The primary cell culture of fibroblasts was obtained from the foreskin by the Laboratory of Cellular Physiology of the National University of Colombia, and the fibroblasts were cultured and frozen. Some vials were thawed and cultured for up to seven passes, since no transformation/immortalization was done. Annexin V and Alexa Fluor 488 conjugate was purchased from Invitrogen (Eugene, Oregon). The DMEM culture medium and trypsin were obtained from Sigma-Aldrich (St Louis, MO, USA). Bovine fetal serum was purchased from Gibco (Waltham, MA, USA). Calcium assay kit and Fluorescein CaspGLOW Active Caspase-8 or Caspase-9 Staining Kit were obtained for BD Biosciences (San Diego, CA, USA) and Invitrogen Thermo Fisher Scientific (Waltham, MA, USA), respectively.
# as §1, with “The cells were then incubated at 37°C for 2 h with 100 µl of peptide at the evaluated concentrations (200, 100, 50, 25, 12.5 and 6.25 µg ml^−1).” left out
# trypsin = trypsin (Sus scrofa, UniProt P00761)
# Procedure: Trypsin (20 μg) was dissolved in 450 µl of the buffer supplied by the manufacturer, and 50 µl was added to each peptide solution, maintaining a protease : peptide ratio of 1 : 100 (w/w). The samples were incubated at 37°C for 24 h. Aliquots were taken at 0, 5, 10, 15 and 20 min, the enzymatic reaction was stopped by adding 1 M HCl, and the mixture was analysed via RP-HPLC and LC-MS. Bovine serum albumin (BSA) and bovine lactoferrin (bLF) were used as the positive control, and the negative control was the peptide in buffer solution without trypsin.
# human erythrocytes = type: cell-based
# Procedure: Haemolysis assays were performed in accordance with Cárdenas et al.. The blood was donated by healthy volunteers with blood type O^+. First, 5 ml of peripheral blood in EDTA was centrifuged at 500 r.p.m. for 15 min, and the erythrocytes were separated and washed three times with 0.9% saline solution. Then 100 µl of peptide solution (final concentrations of 200 at 6.2 µg ml^−1) was mixed with 100 µl of erythrocytes (2% haematocrit) and incubated at 37°C for 2 h. It was then centrifuged at 2500 r.p.m. for 5 min and the absorbance of the supernatant was measured at 450 nm. Two controls were used; positive control: distilled water, and negative control: saline solution 0.9%.
# [4] = tested on: HEK-293 human kidney cell line; type: cell-based
# Procedure: as §1, with “The cells were then incubated at 37°C for 2 h with 100 µl of peptide at the evaluated concentrations (200, 100, 50, 25, 12.5 and 6.25 µg ml^−1).” left out
# pepsin [5] = molecular target: pepsin (Sus scrofa, UniProt P00791); details: pH 2
# Procedure: Pepsin was dissolved in 0.010 M HCl (pH 2.0). An aliquot of 50 µl was added to each peptide solution in a 1 : 100 (w/w) ratio. The peptides were dissolved in H2O-TFA 0.05% (v/v). This was incubated at 37°C for 3 h, aliquots were taken at 0 and 3 h, and the samples were heated for 5 min and then cooled at 4°C for the thermal inactivation of pepsin and characterized via HPLC and LC-MS.
# [6] = tested on: HeLa human cervical cancer cell line; type: cell-based; details: 2 h
# Procedure: as §1
# [7] = tested on: human breast cancer lines MDA-MB-468 and MDA-MB-231; details: 4 mg via intra-tumoural route, cited from earlier work
# Procedure: Mice treated with peptide ^26[F] recovered completely after 24 h, and the survival rate was 100% after one week of observation. […] Peptide ^26[F] was inoculated in female mic ...
# [8] = ratio of IC50 values, in brackets
# trypsin, sequence (P00761 9-231): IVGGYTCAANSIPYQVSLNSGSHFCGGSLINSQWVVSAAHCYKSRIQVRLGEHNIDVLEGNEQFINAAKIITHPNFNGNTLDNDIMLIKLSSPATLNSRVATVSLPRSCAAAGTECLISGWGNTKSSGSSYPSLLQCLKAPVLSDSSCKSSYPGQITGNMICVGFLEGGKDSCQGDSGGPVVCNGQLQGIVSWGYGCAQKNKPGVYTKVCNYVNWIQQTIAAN
# pepsin (Sus scrofa, UniProt P00791), sequence (P00791 60-385): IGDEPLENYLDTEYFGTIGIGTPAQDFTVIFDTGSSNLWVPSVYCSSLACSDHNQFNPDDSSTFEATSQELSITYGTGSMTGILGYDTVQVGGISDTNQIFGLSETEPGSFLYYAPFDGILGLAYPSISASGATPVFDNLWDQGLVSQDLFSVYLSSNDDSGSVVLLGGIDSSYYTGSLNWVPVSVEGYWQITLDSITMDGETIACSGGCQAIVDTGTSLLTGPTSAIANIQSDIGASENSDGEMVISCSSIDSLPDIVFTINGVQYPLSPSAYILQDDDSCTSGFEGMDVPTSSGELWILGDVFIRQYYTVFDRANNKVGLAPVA
molecule,measurement,setting,value
"CC(C)C[C@H](NC(=O)[C@H](CCCCN)NC(=O)[C@H](CCCCN)NC(=O)c1ccc(NC(=O)[C@H](Cc2c[nH]c3ccccc23)NC(=O)[C@H](CCC(N)=O)NC(=O)[C@H](Cc2c[nH]c3ccccc23)NC(=O)[C@H](CCCNC(=N)N)NC(=O)[C@@H](N)CCCNC(=N)N)cc1)C(=O)NCC(=O)NCCCC[C@H](NC(=O)CNC(=O)[C@H](CC(C)C)NC(=O)[C@H](CCCCN)NC(=O)[C@H](CCCCN)NC(=O)c1ccc(NC(=O)[C@H](Cc2c[nH]c3ccccc23)NC(=O)[C@H](CCC(N)=O)NC(=O)[C@H](Cc2c[nH]c3ccccc23)NC(=O)[C@H](CCCNC(=N)N)NC(=O)[C@@H](N)CCCNC(=N)N)cc1)C(=O)NCCCCCC(N)=O [^26[4-Abz], (RRWQWR-4-Abz-KKLG)2-K-Ahx] (I: H-RRWQW[4Abz]KKLGK[Ahx]-NH2 / II: H-RRWQW[4Abz]KKLG; amide I:11-II:C; N-terminus assumed)",IC50,MCF-7 breast cancer line,49 µM
same,tR,[1],5.9 min
"CC(C)C[C@H](NC(=O)[C@H](CCCCN)NC(=O)[C@H](CCCCN)NC(=O)c1ccccc1NC(=O)[C@H](Cc1c[nH]c2ccccc12)NC(=O)[C@H](CCC(N)=O)NC(=O)[C@H](Cc1c[nH]c2ccccc12)NC(=O)[C@H](CCCNC(=N)N)NC(=O)[C@@H](N)CCCNC(=N)N)C(=O)NCC(=O)NCCCC[C@H](NC(=O)CNC(=O)[C@H](CC(C)C)NC(=O)[C@H](CCCCN)NC(=O)[C@H](CCCCN)NC(=O)c1ccccc1NC(=O)[C@H](Cc1c[nH]c2ccccc12)NC(=O)[C@H](CCC(N)=O)NC(=O)[C@H](Cc1c[nH]c2ccccc12)NC(=O)[C@H](CCCNC(=N)N)NC(=O)[C@@H](N)CCCNC(=N)N)C(=O)NCCCCCC(N)=O [^26[2-Abz], (RRWQWR-2-Abz-KKLG)2-K-Ahx] (I: H-RRWQW[2Abz]KKLGK[Ahx]-NH2 / II: H-RRWQW[2Abz]KKLG; amide I:11-II:C; N-terminus assumed)",tR,[1],5.9 min
(RRWQWR-1-Nal-KKLG)2-K-Ahx,not cleaved,pepsin [2],pepsin treatment for 3 h did not induce proteolytic degradation
"CC(C)C[C@H](NC(=O)[C@H](CCCCN)NC(=O)[C@H](CCCCN)NC(=O)[C@H](Cc1ccccc1)NC(=O)[C@H](CCCNC(=N)N)NC(=O)[C@H](Cc1c[nH]c2ccccc12)NC(=O)[C@H](CCC(N)=O)NC(=O)[C@H](Cc1c[nH]c2ccccc12)NC(=O)[C@H](CCCNC(=N)N)NC(=O)[C@@H](N)CCCNC(=N)N)C(=O)NCC(=O)NCCCC[C@H](NC(=O)CNC(=O)[C@H](CC(C)C)NC(=O)[C@H](CCCCN)NC(=O)[C@H](CCCCN)NC(=O)[C@H](Cc1ccccc1)NC(=O)[C@H](CCCNC(=N)N)NC(=O)[C@H](Cc1c[nH]c2ccccc12)NC(=O)[C@H](CCC(N)=O)NC(=O)[C@H](Cc1c[nH]c2ccccc12)NC(=O)[C@H](CCCNC(=N)N)NC(=O)[C@@H](N)CCCNC(=N)N)C(=O)NCCCCCC(N)=O [^26[F], (RRWQWR-F-KKLG)2-K-Ahx] (I: H-RRWQWRFKKLGK[Ahx]-NH2 / II: H-RRWQWRFKKLG; amide I:12-II:C)",observed signs after ip administration (Irwin test),"CD1 mice; experiment 1, male CD1 mice, ip 70 mg kg^−1",motor function decreased 30 min after peptide administration and abdominal contortions were observed
same,survival (%) ip,"CD1 mice; experiment 1, male CD1 mice, single ip dose 70 mg kg^−1, n = 3, one week of observation",100%
same,survival (%) sc,"CD1 mice; experiment 1, male CD1 mice, single sc dose 70 mg kg^−1, n = 3",100%
same,survival (%) ip,"CD1 mice; experiment 2, female CD1 mice, single ip dose 140.0 mg kg^−1, n = 4",0%
same,observed signs after ip administration,"CD1 mice; female mice, ip 140 mg kg^−1, after 30 min of treatment","decreased motor function, abdominal contractions, excess irrigation, marked ataxia and loss of coordination"
same,IC50 fibroblasts,[3]; 2 h,121(35) µg mL^−1
same,selectivity index IC50 fibroblasts/IC50 MCF-7,[3]; ratio of IC50 values,1.5
same,selectivity index IC50 fibroblasts/IC50 HeLa,[3]; [8],5.0
same,"proteolytic degradation by trypsin, 5 min",trypsin,two fragments were also generated
same,"proteolytic degradation by trypsin, 10 min",trypsin,disappeared completely
same,IC50 erythrocytes,human erythrocytes; 2 h,>200(>58) µg mL^−1
same,selectivity index IC50 erythrocytes/IC50 MCF-7,human erythrocytes; ratio of IC50 values,> 2.5
same,selectivity index IC50 erythrocytes/IC50 HeLa,human erythrocytes; [8],> 8.3
same,IC50,MCF-7 breast cancer line,23 µM
same,IC50 MCF-7,MCF-7 breast cancer line,79(23) µg mL^−1
same,IC50 HEK-293,[4]; 2 h,203(59) µg mL^−1
same,selectivity index IC50 HEK-293/IC50 MCF-7,[4]; ratio of IC50 values,2.6
same,selectivity index IC50 HEK-293/IC50 HeLa,[4]; [8],8.4
same,proteolytic degradation by pepsin,pepsin [5],degraded into two fragments
same,IC50 HeLa,[6],24(7) µg mL^−1
"Bovine lactoferricin (FKCRRWQWRMKKLGAPSITCVRRAF; ends and bridges not checked; cysteine pairing not given here; UniProt P24627 36-60, looked up) [LfcinB, 25-amino acid ACP generated by gastric pepsin digestion of bovine lactoferrin]",safety on administration,[7]; NOD-SCI-gamma mice,safe
same,anti-tumoural effect,[7]; xenografts of MDA-MB-468 and MDA-MB-231 in NOD-SCI-gamma mice,had anti-tumoural effect
(RRWQWR-hF-KKLG)2-K-Ahx,not cleaved,pepsin [2],pepsin treatment for 3 h did not induce proteolytic degradation
